Tested on: Vaccinia virus
Assay: Antiviral activity against Vaccinia virus infected in human HEL cells assessed as reduction of virus-induced cytopathogenicity
Assay type: functional, organism-based
Details: Orthopoxvirus vaccinia

Row | Structure (SMILES) | EC50 [µg/mL]
1 | C[C@@H](O)CNc1nc(N)c2ncn(C[C@@H](C)O)c2n1 | > 100
2 | C[C@@H](O)CNc1nc(N)nc2c1ncn2C[C@@H](C)O | > 100
3 | C[C@H](Cn1cnc2c(NCP(=O)(O)O)nc(N)nc21)OCP(=O)(O)O | > 100

Source: ChEMBL document CHEMBL2331282, “9-[2-(R)-(Phosphonomethoxy)propyl]-2,6-diaminopurine (R)-PMPDAP and its prodrugs: optimized preparation, including identification of by-products formed, and antiviral evaluation in vitro” (Bioorg Med Chem, 2013)
